What was measured:
Test in all cases: biochemical
Design in all cases: DiscoverX KinomeScan competition binding assay across human kinases; per cent of control at 10 and 100 uM
PAK6 = PAK6 (Homo sapiens, UniProt Q9NQU5); conditions: competition binding, % of control; read-out: Percent Control (100 uM Levosimendan)
Procedure, shortened: (§1)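 KinomeScan competition binding was run across a human kinase panel at 10 μM and 100 μM levosimendan. Results are %control = (test − positive control)/(negative control − positive control) × 100.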

EPHB2 = EPHB2 (Homo sapiens, UniProt P29323); conditions: competition binding, % of control; read-out: Percent Control (100 uM Levosimendan)
Procedure, shortened: as §1

PRKCD = PRKCD (Homo sapiens, UniProt Q05655); conditions: competition binding, % of control
Procedure, shortened: as §1

MKK7 = target: T1, MKK7 (Homo sapiens, UniProt O14733); conditions: competition binding, % of control; read-out: Percent Control (100 uM Levosimendan)
T1 construct: gene MAP2K7
Procedure, shortened: as §1

p38-beta = target: T2, p38-beta (Homo sapiens, UniProt Q15759); conditions: competition binding, % of control; read-out: Percent Control (100 uM Levosimendan)
T2 construct: gene MAPK11
Procedure, shortened: as §1

TAK1 = target: T3, TAK1 (Homo sapiens, UniProt O43318); conditions: competition binding, % of control; read-out: Percent Control (100 uM Levosimendan)
T3 construct: gene MAP3K7
Procedure, shortened: as §1

PIP5K1A = PIP5K1A (Homo sapiens, UniProt Q99755); conditions: competition binding, % of control
Procedure, shortened: as §1

PAK4 = PAK4 (Homo sapiens, UniProt O96013); conditions: competition binding, % of control; read-out: Percent Control (100 uM Levosimendan)
Procedure, shortened: as §1

DAPK3 = DAPK3 (Homo sapiens, UniProt O43293); conditions: competition binding, % of control; read-out: Percent Control (100 uM Levosimendan)
Procedure, shortened: as §1

ERK2 = target: T4, ERK2 (Homo sapiens, UniProt P28482); conditions: competition binding, % of control; read-out: Percent Control (100 uM Levosimendan)
T4 construct: gene MAPK1
Procedure, shortened: as §1

VRK2 = VRK2 (Homo sapiens, UniProt Q86Y07); conditions: competition binding, % of control; read-out: Percent Control (100 uM Levosimendan)
Procedure, shortened: as §1

ALK(L1196M) = ALK(L1196M) (Homo sapiens, UniProt Q9UM73, L1196M); conditions: competition binding, % of control; read-out: Percent Control (100 uM Levosimendan)
Procedure, shortened: as §1

MYO3A = MYO3A (Homo sapiens, UniProt Q8NEV4); conditions: competition binding, % of control; read-out: Percent Control (100 uM Levosimendan)
Procedure, shortened: as §1

FRK = FRK (Homo sapiens, UniProt P42685); conditions: competition binding, % of control; read-out: Percent Control (100 uM Levosimendan)
Procedure, shortened: as §1

MET(Y1235D) = MET(Y1235D) (Homo sapiens, UniProt P08581, Y1235D); conditions: competition binding, % of control; read-out: Percent Control (100 uM Levosimendan)
Procedure, shortened: as §1

FLT3-autoinhibited = FLT3-autoinhibited (Homo sapiens, UniProt P36888); conditions: competition binding, % of control; read-out: Percent Control (100 uM Levosimendan)
Procedure, shortened: as §1

BTK = BTK (Homo sapiens, UniProt Q06187); conditions: competition binding, % of control; read-out: Percent Control (100 uM Levosimendan)
Procedure, shortened: as §1

PLK3 = PLK3 (Homo sapiens, UniProt Q9H4B4); conditions: competition binding, % of control; read-out: Percent Control (100 uM Levosimendan)
Procedure, shortened: as §1

HCK = HCK (Homo sapiens, UniProt P08631); conditions: competition binding, % of control
Procedure, shortened: as §1

[1] = read-out: Percent Control (10 uM Levosimendan)
[2] = read-out: Percent Control (100 uM Levosimendan)

Chain of HCK (P08631 whole entry): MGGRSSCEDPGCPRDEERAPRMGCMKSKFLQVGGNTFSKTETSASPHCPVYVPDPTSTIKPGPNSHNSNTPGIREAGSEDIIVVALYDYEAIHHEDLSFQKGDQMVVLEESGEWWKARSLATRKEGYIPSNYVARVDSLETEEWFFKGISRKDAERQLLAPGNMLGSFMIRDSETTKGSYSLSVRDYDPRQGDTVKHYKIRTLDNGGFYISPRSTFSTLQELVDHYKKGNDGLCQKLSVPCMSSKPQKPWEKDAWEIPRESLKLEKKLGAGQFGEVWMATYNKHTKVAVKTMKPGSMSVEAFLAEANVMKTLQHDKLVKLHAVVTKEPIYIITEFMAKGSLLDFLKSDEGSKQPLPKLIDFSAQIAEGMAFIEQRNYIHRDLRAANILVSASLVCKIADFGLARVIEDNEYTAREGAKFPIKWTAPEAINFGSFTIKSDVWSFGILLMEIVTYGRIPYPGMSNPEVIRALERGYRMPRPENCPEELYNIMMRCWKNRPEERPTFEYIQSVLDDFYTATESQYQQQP
Chain of PRKCD (Q05655 whole entry): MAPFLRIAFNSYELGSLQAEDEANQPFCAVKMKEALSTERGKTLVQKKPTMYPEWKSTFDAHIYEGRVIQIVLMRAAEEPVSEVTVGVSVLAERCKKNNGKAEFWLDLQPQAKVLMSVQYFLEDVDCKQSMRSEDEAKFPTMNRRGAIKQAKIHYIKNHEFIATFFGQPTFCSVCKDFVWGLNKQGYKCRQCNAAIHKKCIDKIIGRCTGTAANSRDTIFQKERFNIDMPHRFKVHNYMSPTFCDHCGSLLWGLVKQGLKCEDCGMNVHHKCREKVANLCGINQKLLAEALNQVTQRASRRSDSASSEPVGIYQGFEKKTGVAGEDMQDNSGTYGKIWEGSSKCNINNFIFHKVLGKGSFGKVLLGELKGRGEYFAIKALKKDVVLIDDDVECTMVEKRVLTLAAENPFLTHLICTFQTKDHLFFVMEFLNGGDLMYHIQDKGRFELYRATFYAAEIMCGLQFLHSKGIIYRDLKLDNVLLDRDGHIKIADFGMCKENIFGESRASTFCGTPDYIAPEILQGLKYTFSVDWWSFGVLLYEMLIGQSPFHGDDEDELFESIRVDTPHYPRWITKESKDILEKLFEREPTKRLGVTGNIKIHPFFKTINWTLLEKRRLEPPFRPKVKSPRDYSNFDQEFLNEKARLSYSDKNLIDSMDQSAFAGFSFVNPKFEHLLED
Chain of PIP5K1A (Q99755 whole entry): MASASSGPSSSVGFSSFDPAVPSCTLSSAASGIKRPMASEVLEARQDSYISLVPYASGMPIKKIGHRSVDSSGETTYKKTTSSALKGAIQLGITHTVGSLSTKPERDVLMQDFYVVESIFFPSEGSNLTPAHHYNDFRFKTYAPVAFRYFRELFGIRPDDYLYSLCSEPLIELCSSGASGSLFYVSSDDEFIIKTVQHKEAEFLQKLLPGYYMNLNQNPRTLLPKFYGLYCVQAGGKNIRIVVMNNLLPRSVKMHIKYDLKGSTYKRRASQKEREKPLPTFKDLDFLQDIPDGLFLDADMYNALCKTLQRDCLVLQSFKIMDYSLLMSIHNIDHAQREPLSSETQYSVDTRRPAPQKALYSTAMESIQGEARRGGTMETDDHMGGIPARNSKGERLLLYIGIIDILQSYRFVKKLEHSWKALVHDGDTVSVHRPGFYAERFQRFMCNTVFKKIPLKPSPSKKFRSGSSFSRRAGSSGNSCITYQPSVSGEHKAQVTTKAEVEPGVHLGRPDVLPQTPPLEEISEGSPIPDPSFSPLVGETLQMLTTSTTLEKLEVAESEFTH
Chain of PLK3 (Q9H4B4 whole entry): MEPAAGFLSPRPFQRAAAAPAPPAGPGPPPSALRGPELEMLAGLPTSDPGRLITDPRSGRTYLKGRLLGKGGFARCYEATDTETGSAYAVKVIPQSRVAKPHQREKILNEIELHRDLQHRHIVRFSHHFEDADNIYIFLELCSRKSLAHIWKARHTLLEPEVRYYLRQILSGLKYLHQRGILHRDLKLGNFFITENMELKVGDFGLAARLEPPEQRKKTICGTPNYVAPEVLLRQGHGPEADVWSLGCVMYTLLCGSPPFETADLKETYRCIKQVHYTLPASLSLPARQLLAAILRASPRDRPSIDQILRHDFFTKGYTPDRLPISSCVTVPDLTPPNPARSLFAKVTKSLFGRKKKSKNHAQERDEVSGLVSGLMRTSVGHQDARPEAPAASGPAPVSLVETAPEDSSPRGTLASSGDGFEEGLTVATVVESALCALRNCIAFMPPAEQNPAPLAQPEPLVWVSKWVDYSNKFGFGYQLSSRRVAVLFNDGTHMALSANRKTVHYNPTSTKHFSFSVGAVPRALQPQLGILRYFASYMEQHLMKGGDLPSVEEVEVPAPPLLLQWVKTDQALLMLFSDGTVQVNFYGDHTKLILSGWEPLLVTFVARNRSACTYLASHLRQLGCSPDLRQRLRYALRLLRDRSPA
Chain of ALK(L1196M) (Q9UM73 whole entry L1196M): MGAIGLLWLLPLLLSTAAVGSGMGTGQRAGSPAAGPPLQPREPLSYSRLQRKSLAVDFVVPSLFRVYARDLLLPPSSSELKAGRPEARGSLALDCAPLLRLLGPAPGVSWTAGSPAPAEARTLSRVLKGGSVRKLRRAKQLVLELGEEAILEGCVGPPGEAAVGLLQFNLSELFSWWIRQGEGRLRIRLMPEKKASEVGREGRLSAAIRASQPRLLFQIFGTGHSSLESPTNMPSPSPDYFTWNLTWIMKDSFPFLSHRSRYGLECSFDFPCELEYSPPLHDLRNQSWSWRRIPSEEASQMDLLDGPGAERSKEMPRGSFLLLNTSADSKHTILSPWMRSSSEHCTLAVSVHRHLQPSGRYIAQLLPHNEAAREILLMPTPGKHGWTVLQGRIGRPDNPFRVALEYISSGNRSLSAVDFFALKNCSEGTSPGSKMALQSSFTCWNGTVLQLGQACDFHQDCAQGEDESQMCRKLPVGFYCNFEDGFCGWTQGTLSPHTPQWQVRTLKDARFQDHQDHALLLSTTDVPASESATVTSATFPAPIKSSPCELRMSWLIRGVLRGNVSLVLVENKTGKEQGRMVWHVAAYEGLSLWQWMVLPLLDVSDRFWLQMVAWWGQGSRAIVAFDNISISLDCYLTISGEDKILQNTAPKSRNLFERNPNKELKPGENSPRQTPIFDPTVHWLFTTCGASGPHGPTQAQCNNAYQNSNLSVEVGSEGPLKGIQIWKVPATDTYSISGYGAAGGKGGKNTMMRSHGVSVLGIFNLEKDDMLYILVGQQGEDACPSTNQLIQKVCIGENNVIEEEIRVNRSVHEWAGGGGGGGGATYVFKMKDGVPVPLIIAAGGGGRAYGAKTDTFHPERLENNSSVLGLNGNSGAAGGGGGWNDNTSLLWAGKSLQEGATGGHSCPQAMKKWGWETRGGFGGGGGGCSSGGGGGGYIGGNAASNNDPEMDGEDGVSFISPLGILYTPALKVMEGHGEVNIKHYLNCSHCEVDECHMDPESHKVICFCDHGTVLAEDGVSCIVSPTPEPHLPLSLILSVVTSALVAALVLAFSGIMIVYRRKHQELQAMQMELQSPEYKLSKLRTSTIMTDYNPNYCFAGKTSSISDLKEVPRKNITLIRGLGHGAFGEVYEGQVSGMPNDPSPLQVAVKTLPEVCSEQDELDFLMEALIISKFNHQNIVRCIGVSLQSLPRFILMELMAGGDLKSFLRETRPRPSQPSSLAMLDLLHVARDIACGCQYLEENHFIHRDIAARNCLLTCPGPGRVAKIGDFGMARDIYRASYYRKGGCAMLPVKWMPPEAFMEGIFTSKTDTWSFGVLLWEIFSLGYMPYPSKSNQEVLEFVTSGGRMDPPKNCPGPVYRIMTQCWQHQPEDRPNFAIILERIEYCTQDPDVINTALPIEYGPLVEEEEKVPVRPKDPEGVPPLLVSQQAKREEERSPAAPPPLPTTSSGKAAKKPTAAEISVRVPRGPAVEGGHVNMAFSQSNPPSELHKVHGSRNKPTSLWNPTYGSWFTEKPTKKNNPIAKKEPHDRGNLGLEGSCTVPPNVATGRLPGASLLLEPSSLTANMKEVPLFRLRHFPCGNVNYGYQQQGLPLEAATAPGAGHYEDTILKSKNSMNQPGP
Chain of EPHB2 (P29323 whole entry): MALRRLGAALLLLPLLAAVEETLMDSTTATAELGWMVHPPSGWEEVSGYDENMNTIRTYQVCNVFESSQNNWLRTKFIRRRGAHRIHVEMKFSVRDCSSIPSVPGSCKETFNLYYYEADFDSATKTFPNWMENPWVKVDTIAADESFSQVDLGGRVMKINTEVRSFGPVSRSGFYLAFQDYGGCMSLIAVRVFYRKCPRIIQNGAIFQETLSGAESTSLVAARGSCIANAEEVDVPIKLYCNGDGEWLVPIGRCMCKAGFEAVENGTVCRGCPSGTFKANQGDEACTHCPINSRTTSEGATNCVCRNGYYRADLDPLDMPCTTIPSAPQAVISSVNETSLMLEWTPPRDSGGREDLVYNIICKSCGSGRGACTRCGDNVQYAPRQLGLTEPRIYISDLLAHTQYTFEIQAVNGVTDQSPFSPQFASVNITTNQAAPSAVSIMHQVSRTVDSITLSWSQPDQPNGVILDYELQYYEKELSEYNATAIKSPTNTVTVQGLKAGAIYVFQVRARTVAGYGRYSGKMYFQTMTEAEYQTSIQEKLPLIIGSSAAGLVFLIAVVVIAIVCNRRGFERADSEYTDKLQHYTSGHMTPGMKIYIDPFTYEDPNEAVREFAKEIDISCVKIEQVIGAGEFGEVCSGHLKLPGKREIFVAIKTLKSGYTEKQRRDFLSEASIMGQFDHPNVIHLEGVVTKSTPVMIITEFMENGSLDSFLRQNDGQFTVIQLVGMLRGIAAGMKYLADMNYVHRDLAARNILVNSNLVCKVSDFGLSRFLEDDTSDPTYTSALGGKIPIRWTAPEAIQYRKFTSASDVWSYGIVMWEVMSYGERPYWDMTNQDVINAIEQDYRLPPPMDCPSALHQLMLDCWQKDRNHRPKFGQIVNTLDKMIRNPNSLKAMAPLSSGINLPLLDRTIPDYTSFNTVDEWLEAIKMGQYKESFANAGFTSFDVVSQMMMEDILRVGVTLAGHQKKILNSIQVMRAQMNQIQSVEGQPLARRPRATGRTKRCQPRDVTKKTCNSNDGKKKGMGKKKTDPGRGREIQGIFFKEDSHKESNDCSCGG

`C[C@@H]1CC(=O)NN=C1c1ccc(NN=C(C#N)C#N)cc1` [levosimendan] showed a remaining binding at 100 µM (PAK6) of 70%, a remaining binding at 100 µM (EPHB2) of 77% and a remaining binding at 10 µM (PRKCD; [1]) of 93%. For the same molecule, the remaining binding at 100 µM (PRKCD; [2]) was 48%, the remaining binding at 100 µM (MKK7) was 100% and the remaining binding at 100 µM (p38-beta) was 94%. For the same molecule, the remaining binding at 100 µM (TAK1) was 78%, the remaining binding at 10 µM (PIP5K1A; [1]) was 22% and the remaining binding at 100 µM (PIP5K1A; [2]) was 6.2%. For the same molecule, the remaining binding at 100 µM (PAK4) was 89%, the remaining binding at 100 µM (DAPK3) was 60% and the remaining binding at 100 µM (ERK2) was 100%. The remaining binding at 100 µM (VRK2) was 69%, the remaining binding at 100 µM (ALK(L1196M)) was 72% and the remaining binding at 100 µM (MYO3A) was 97%. It also gave a remaining binding at 100 µM (FRK) of 100%, a remaining binding at 100 µM (MET(Y1235D)) of 57% and a remaining binding at 100 µM (FLT3-autoinhibited) of 98%. The remaining binding at 100 µM (BTK) was 100%, the remaining binding at 100 µM (PLK3) was 97% and the remaining binding at 10 µM (HCK; [1]) was 98%. The remaining binding at 100 µM (HCK; [2]) was 24%.

From paper PMC6576746, “Rational discovery of dual-indication multi-target PDE/Kinase inhibitor for precision anti-cancer therapy using structural systems pharmacology” (PLoS Computational Biology, 2019)
